How the values were obtained:
Format in all cases: in vivo
[1] = system: Tobacco Budworm (Heliothis virescens); experiment: Tobacco budworm insect diet test (B.4); conditions: 120 h, egg and larval mortality, 5 days, in comparison with untreated controls
Procedure: For evaluating control of tobacco budworm (Heliothis virescens) the test unit consisted of 96-well-microtiter plates containing an insect diet and 15-25 H. virescens eggs.
The compounds were formulated using a solution containing 75% v/v water and 25% v/v DMSO. Different concentrations of formulated compounds were sprayed onto the insect diet at 10 μl, using a custom built micro atomizer, at two replications.
(§1) After application, microtiter plates were incubated at about 28±1° C. and about 80±5% relative humidity for 5 days. Egg and larval mortality was then visually assessed.

[2] = system: Boll Weevil (Anthonomus grandis); experiment: Boll weevil insect diet test (B.5); conditions: 120 h, egg and larval mortality, 5 days, in comparison with untreated controls
Procedure: For evaluating control of boll weevil (Anthonomus grandis) the test unit consisted of 96-well-microtiter plates containing an insect diet and 5-10 A. grandis eggs.
The compounds were formulated using a solution containing 75% v/v water and 25% v/v DMSO. Different concentrations of formulated compounds were sprayed onto the insect diet at 5 μl, using a custom built micro atomizer, at two replications.
After application, microtiter plates were incubated at about 25±1° C. and about 75±5% relative humidity for 5 days. Egg and larval mortality was then visually assessed.

[3] = system: Green Peach Aphid (Myzus persicae); experiment: Green peach aphid artificial diet test, systemic (B.2); conditions: 72 h, adult aphids on treated artificial diet, 3 days, in comparison with untreated controls
From the text: For evaluating control of green peach aphid (Myzus persicae) through systemic means the test unit consisted of 96-well-microtiter plates containing liquid artificial diet under an artificial membrane.
The compounds were formulated using a solution containing 75% v/v water and 25% v/v DMSO. Different concentrations of formulated compounds were pipetted into the aphid diet, using a custom built pipetter, at two replications.
After application, 5-8 adult aphids were placed on the artificial membrane inside the microtiter plate wells. The aphids were then allowed to suck on the treated aphid diet and incubated at about 23±1° C. and about 50±5% relative humidity for 3 days. Aphid mortality and fecundity was then visually assessed.

[4] = system: Rice green leafhopper (Nephotettix virescens); experiment: Rice green leafhopper rice seedling spray test (B.8); conditions: adults on sprayed rice seedlings, after 72 hours, in comparison with untreated controls
Procedure: Rice seedlings were cleaned and washed 24 hours before spraying. The active compounds were formulated in 1:1 acetone:water (vol:vol), and 0.01% vol/vol surfactant (Kinetic HV) was added. Potted rice seedlings were sprayed with 5-6 ml test solution, air dried, covered with Mylar cages cages and inoculated with 10 adults. Treated rice plants were kept at about 28-29° C. and relative humidity of about 50-60%. Percent mortality was recorded after 72 hours.

[5] = system: Red Spider Mite (Tetranychus kanzawai); experiment: Red spider mite cowpea spray test (B.9); conditions: mites on sprayed cowpea beans, 72 hours after treatment, in comparison with untreated controls
Procedure: The active compound was dissolved at the desired concentration in a mixture of 1:1 (vol:vol) distilled water:acetone. Add surfactant (Kinetic HV) was added at a rate of 0.01% (vol/vol). The test solution was prepared at the day of use.
Potted cowpea beans of 4-5 days of age were cleaned with tap water and sprayed with 1-2 ml of the test solution using air driven hand atomizer. The treated plants were allowed to air dry and afterwards inoculated with 30 or more mites by clipping a cassava leaf section from rearing population. Treated plants were placed inside a holding room at about 25-27° C. and about 50-60% relative humidity. Percent mortality was assessed 72 hours after treatment.

[6] = system: Orchid Thrips (Dichromothrips corbetti); experiment: Orchid thrips floral-immersion test (B.7); conditions: adult thrips on dipped orchid petals, 72 hours after treatment, in comparison with untreated controls
Procedure: Dichromothrips corbetti adults used for bioassay were obtained from a colony maintained continuously under laboratory conditions. For testing purposes, the test compound is diluted in a 1:1 mixture of acetone:water (vol:vol), plus Kinetic HV at a rate of 0.01% v/v.
Thrips potency of each compound was evaluated by using a floral-immersion technique. All petals of individual, intact orchid flowers were dipped into treatment solution and allowed to dry in Petri dishes. Treated petals were placed into individual re-sealable plastic along with about 20 adult thrips. All test arenas were held under continuous light and a temperature of about 28° C. for duration of the assay. After 3 days, the numbers of live thrips were counted on each petal. The percent mortality was recorded 72 hours after treatment.

[7] = system: Vetch Aphid (Megoura viciae); experiment: Vetch aphid broad bean leaf disk test (B.3); conditions: foliar, 120 h, adult aphids on sprayed leaf disks, 5 days, in comparison with untreated controls
Procedure: For evaluating control of vetch aphid (Megoura viciae) through contact or systemic means the test unit consisted of 24-well-microtiter plates containing broad bean leaf disks.
The compounds were formulated using a solution containing 75% v/v water and 25% v/v DMSO. Different concentrations of formulated compounds were sprayed onto the leaf disks at 2.5 μl, using a custom built micro atomizer, at two replications.
After application, the leaf disks were air-dried and 5-8 adult aphids placed on the leaf disks inside the microtiter plate wells. The aphids were then allowed to suck on the treated leaf disks and incubated at about 23±1° C. and about 50±5% relative humidity for 5 days. Aphid mortality and fecundity was then visually assessed.

[8] = system: Mediterranean Fruitfly (Ceratitis capitata); experiment: Mediterranean fruitfly insect diet test (B.6); conditions: 120 h, egg and larval mortality, 5 days, in comparison with untreated controls
Procedure: For evaluating control of Mediterranean fruitfly (Ceratitis capitata) the test unit consisted of microtiter plates containing an insect diet and 50-80 C. capitata eggs. The compounds were formulated using a solution containing 75% v/v water and 25% v/v DMSO. Different concentrations of formulated compounds were sprayed onto the insect diet at 5 μl, using a custom built micro atomizer, at two replications.
as §1

[9] = system: Diamond Back Moth (Plutella xylostella); experiment: Diamond back moth leaf-dip test (B.1); conditions: 3rd instar larvae on dipped cabbage leaves, 72 hours after treatment, in comparison with untreated controls
Procedure: The active compound was dissolved at the desired concentration in a mixture of 1:1 (vol:vol) distilled water:aceteone. Surfactant (Kinetic HV) was added at a rate of 0.01% (vol/vol). The test solution was prepared at the day of use.
Leaves of cabbage were dipped in test solution and air-dried. Treated leaves were placed in petri dishes lined with moist filter paper and inoculated with ten 3rd instar larvae. Mortality was recorded 72 hours after treatment. Feeding damages were also recorded using a scale of 0-100%.

O=C(O)c1ccc(C2=NSC(c3cc(Cl)c(F)c(Cl)c3)(C(F)(F)F)C2)c2c1CCC2 (centres unmarked) [Compound 1-1, 7-[5-(3,5-Dichloro-4-fluoro-phenyl)-5-(trifluoromethyl)-4H-isothiazol-3-yl]indane-4-carboxylic acid]
≥ 75%: mortality at 2500 ppm [1] | mortality at 2500 ppm [2] | mortality at 2500 ppm [3]

O=C(NCC(F)(F)F)c1ccc(C2=NSC(c3cc(Cl)c(F)c(Cl)c3)(C(F)(F)F)C2)c2c1CCC2 (centres unmarked) [Compound 1-7, 7-[5-(3,5-Dichloro-4-fluoro-phenyl)-5-(trifluoromethyl)-4H-isothiazol-3-yl]-N-(2,2,2-trifluoroethyl)indane-4-carboxamide]
≥ 75%: mortality at 500 ppm [4] | mortality at 500 ppm [5] | mortality at 500 ppm [6] | mortality at 2500 ppm [1] | mortality at 2500 ppm [7] | mortality at 2500 ppm [2] | mortality at 2500 ppm [3] | mortality at 2500 ppm [8] | mortality at 500 ppm [9]

COC(=O)c1ccc(C2=NSC(c3cc(Cl)c(F)c(Cl)c3)(C(F)(F)F)C2)c2c1CCCC2 (centres unmarked) [Compound 2-1, Methyl 8-[5-(3,5-dichloro-4-fluoro-phenyl)-5-(trifluoromethyl)-4H-isothiazol-3-yl]tetralin-5-carboxylate]
≥ 75%: mortality at 2500 ppm [1] | mortality at 2500 ppm [2] | mortality at 2500 ppm [8]

O=C(NCc1ncccn1)c1ccc(C2=NSC(c3cc(Cl)c(F)c(Cl)c3)(C(F)(F)F)C2)c2c1CCCC2 (centres unmarked) [Compound 2-6, 8-[5-(3,5-Dichloro-4-fluoro-phenyl)-5-(trifluoromethyl)-4H-isothiazol-3-yl]-N-(pyrimidin-2-ylmethyl)tetralin-5-carboxamide]
≥ 75%: mortality at 2500 ppm [1] | mortality at 2500 ppm [7] | mortality at 2500 ppm [2] | mortality at 2500 ppm [3] | mortality at 2500 ppm [8]

O=C(O)c1ccc(C2=NSC(c3cc(Cl)c(F)c(Cl)c3)(C(F)(F)F)C2)c2c1CCCC2 (centres unmarked) [Compound 2-2, 8-[5-(3,5-Dichloro-4-fluoro-phenyl)-5-(trifluoromethyl)-4H-isothiazol-3-yl]tetralin-5-carboxylic acid]
≥ 75%: mortality at 2500 ppm [1] | mortality at 2500 ppm [2] | mortality at 2500 ppm [8]
